Experimental data reported in the kinase profiling compilation of Christmann-Franck et al. (2016).

Experiments:
Assay in all cases: KINOMEscan competition binding
Settings in all cases: compound 1.0 µM
CHUK (human) = CHUK (human) (UniProt O15111)
PKN1 (human) = PKN1 (human) (UniProt Q16512)
MYLK2 (human) = MYLK2 (human) (UniProt Q9H1R3)
ICK (human) = ICK (human) (UniProt Q9UPZ9)
[1] = test system: RET (human), P07949 [V804M]
MAP4K1 (human) = MAP4K1 (human) (UniProt Q92918)
BMPR1B (human) = BMPR1B (human) (UniProt O00238)
BMX (human) = BMX (human) (UniProt P51813)
LATS1 (human) = LATS1 (human) (UniProt O95835)
MST1R (human) = MST1R (human) (UniProt Q04912)
[2] = test system: PIK3CA (human), P42336 [E545K]
CDKL3 (human) = CDKL3 (human) (UniProt Q8IVW4)
GSK3B (human) = GSK3B (human) (UniProt P49841)
TNK2 (human) = TNK2 (human) (UniProt Q07912)
STK32A (human) = STK32A (human) (UniProt Q8WU08)
PIK3C2G (human) = PIK3C2G (human) (UniProt O75747)
PRKAA1 (human) = PRKAA1 (human) (UniProt Q13131)
PIP4K2B (human) = PIP4K2B (human) (UniProt P78356)
STK39 (human) = STK39 (human) (UniProt Q9UEW8)
INSR (human) = INSR (human) (UniProt P06213)
[3] = test system: PIK3CA (human), P42336 [Q546K]
FRK (human) = FRK (human) (UniProt P42685)
MAP2K4 (human) = MAP2K4 (human) (UniProt P45985)
PAK7 (human) = PAK7 (human) (UniProt Q9P286)
PDGFRB (human) = PDGFRB (human) (UniProt P09619)
PLK3 (human) = PLK3 (human) (UniProt Q9H4B4)
[4] = test system: KIT (human), P10721 [V559D/V654A]
CLK1 (human) = CLK1 (human) (UniProt P49759)
MAP2K1 (human) = MAP2K1 (human) (UniProt Q02750)
PRKD3 (human) = PRKD3 (human) (UniProt O94806)
CSNK2A1 (human) = CSNK2A1 (human) (UniProt P68400)
MYLK3 (human) = MYLK3 (human) (UniProt Q32MK0)
[5] = test system: EGFR (human), P00533 [T790M/L858R]
MAPK1 (human) = MAPK1 (human) (UniProt P28482)
MAP3K1 (human) = MAP3K1 (human) (UniProt Q13233)
MAP3K9 (human) = MAP3K9 (human) (UniProt P80192)
DDR2 (human) = DDR2 (human) (UniProt Q16832)
ULK3 (human) = ULK3 (human) (UniProt Q6PHR2)
PRKCI (human) = PRKCI (human) (UniProt P41743)

PAK7 (human), sequence (Q9P286 whole entry, looked up): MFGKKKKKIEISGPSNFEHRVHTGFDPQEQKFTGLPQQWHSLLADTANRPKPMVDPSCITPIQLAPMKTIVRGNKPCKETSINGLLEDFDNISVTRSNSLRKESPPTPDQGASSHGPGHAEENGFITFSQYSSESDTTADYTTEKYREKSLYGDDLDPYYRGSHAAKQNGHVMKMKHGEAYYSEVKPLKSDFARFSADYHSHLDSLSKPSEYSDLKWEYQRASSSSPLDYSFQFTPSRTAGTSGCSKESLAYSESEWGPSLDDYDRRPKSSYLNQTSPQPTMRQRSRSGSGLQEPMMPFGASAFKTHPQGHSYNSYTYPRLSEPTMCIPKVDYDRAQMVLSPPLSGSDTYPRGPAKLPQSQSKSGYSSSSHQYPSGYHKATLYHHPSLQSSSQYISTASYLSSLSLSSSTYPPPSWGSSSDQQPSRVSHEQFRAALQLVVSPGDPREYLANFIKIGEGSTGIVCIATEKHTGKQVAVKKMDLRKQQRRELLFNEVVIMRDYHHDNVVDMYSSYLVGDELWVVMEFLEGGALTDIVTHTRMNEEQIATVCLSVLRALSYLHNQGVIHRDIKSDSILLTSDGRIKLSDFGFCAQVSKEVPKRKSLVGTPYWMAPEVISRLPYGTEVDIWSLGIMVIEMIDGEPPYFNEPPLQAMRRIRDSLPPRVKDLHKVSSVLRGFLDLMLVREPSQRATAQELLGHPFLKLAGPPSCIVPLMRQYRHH
INSR (human), sequence (P06213 whole entry, looked up): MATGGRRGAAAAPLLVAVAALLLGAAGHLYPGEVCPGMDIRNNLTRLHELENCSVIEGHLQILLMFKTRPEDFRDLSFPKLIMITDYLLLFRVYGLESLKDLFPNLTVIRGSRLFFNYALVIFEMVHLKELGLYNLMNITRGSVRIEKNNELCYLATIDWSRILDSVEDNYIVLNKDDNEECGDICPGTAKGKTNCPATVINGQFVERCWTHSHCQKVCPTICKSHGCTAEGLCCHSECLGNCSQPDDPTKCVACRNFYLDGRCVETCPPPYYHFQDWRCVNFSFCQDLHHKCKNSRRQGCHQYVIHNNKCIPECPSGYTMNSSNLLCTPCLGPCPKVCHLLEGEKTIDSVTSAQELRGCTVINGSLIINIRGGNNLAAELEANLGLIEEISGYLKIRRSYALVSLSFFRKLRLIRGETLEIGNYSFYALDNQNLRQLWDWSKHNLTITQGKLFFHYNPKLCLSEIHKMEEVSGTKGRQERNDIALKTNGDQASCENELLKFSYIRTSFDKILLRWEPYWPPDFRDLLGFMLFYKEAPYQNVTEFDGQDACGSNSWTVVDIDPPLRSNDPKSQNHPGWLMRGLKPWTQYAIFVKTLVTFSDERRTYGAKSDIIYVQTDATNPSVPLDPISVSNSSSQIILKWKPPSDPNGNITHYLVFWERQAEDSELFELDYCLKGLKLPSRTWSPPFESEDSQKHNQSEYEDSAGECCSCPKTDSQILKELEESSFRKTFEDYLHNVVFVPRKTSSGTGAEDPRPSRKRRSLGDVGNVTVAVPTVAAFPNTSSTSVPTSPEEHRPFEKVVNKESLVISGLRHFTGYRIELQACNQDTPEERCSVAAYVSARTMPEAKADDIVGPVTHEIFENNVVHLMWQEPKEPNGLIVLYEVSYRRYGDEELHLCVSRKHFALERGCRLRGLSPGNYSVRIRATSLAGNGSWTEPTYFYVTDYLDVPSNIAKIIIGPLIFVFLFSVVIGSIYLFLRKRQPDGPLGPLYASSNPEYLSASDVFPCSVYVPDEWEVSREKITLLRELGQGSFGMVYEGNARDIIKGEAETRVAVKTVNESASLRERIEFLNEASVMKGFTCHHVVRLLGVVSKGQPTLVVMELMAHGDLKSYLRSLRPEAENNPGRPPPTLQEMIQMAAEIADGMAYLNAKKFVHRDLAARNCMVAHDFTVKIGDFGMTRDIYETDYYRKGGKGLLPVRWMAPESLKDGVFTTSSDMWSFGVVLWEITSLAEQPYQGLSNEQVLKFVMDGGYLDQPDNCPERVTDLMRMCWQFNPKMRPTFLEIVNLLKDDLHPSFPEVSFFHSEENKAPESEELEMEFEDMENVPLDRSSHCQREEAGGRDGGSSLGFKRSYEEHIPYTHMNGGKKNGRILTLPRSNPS
PKN1 (human), sequence (Q16512 whole entry, looked up): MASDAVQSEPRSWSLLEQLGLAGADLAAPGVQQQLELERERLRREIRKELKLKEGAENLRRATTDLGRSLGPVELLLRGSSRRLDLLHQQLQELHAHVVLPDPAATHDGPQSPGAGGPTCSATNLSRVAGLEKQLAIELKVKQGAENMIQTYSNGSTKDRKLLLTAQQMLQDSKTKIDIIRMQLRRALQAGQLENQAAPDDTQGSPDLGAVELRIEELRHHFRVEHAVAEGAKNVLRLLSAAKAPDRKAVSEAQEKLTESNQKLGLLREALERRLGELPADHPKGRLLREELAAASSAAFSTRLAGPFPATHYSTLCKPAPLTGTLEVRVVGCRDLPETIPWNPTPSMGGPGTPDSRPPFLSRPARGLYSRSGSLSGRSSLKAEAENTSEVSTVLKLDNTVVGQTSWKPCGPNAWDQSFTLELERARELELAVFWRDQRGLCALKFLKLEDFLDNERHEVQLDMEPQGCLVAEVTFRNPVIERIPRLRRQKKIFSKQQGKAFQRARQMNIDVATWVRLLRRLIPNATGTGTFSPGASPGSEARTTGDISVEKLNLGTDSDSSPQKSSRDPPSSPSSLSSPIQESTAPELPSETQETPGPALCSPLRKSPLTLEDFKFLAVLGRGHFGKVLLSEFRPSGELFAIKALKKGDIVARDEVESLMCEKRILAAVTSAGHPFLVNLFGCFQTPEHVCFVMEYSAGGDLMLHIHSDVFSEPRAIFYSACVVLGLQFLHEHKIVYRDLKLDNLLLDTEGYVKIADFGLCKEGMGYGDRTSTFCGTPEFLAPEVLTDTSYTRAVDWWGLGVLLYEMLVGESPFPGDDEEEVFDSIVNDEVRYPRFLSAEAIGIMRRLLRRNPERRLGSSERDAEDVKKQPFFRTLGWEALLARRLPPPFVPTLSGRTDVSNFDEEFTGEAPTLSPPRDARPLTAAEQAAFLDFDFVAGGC
RET (human), P07949 [V804M], sequence (P07949 whole entry V804M, looked up): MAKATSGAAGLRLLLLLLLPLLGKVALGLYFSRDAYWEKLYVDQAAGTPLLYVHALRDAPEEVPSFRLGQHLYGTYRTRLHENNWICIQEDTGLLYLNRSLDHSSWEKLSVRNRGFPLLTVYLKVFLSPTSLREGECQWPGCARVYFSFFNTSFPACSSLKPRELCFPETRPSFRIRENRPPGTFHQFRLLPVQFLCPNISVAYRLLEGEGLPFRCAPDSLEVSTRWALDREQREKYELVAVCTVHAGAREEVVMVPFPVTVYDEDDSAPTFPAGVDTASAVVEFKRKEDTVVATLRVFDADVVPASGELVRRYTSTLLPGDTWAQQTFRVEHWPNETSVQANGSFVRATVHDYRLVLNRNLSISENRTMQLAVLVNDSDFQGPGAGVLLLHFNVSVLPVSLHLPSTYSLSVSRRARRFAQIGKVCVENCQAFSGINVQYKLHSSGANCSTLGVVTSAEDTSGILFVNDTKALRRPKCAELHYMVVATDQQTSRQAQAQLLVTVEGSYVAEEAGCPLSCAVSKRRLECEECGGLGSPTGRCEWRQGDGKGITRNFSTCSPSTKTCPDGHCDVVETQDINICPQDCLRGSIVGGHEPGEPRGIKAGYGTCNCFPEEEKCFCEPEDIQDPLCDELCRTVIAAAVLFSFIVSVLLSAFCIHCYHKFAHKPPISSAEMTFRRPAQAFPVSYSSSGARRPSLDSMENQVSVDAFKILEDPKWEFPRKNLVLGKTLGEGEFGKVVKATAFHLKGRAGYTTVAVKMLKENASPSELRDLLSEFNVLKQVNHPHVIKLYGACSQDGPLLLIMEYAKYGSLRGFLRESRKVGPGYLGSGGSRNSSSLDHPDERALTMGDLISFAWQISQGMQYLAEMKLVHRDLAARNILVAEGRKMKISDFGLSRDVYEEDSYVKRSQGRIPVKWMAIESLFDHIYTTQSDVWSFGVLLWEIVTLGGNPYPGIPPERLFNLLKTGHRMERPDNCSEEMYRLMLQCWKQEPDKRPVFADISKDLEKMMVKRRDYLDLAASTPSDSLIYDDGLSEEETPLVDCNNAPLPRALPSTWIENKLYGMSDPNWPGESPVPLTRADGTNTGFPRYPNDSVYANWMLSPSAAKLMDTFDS
MAP4K1 (human), sequence (Q92918 whole entry, looked up): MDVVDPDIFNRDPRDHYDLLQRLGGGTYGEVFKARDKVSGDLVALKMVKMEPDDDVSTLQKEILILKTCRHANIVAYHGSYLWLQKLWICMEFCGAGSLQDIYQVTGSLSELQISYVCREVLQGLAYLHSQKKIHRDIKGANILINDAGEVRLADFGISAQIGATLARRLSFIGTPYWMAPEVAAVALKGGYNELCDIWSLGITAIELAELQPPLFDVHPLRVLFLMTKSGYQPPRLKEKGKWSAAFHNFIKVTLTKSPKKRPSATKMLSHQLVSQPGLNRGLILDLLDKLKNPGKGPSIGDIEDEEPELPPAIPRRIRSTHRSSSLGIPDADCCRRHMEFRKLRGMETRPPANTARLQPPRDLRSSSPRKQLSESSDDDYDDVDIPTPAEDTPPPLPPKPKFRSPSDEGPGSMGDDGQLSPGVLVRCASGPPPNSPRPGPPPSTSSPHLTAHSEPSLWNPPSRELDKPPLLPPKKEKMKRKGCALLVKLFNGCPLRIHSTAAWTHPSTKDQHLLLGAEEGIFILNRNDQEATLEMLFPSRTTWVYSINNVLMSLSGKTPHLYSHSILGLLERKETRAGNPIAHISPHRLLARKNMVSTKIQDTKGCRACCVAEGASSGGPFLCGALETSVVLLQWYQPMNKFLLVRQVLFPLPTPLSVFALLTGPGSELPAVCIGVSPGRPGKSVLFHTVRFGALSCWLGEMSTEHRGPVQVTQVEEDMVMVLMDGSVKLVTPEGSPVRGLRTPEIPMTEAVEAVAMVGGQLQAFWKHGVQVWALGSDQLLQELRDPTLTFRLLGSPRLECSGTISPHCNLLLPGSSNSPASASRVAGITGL

`CNc1nc(Nc2ccc(C(=O)N3CCOCC3)cc2OC)ncc1Cl` gave a kinase still bound, per cent of control (CHUK (human)) of 50%, a kinase still bound, per cent of control (PKN1 (human)) of 100% and a kinase still bound, per cent of control (MYLK2 (human)) of 100%. It also gave a kinase still bound, per cent of control (ICK (human)) of 100%, a kinase still bound, per cent of control [1] of 92% and a kinase still bound, per cent of control (MAP4K1 (human)) of 100%. It also gave a kinase still bound, per cent of control (BMPR1B (human)) of 100%, a kinase still bound, per cent of control (BMX (human)) of 100% and a kinase still bound, per cent of control (LATS1 (human)) of 100%. For the same molecule, the kinase still bound, per cent of control (MST1R (human)) was 100%, the kinase still bound, per cent of control [2] was 100% and the residual activity (CDKL3 (human)) was 100%. The kinase still bound, per cent of control (GSK3B (human)) was 97%, the kinase still bound, per cent of control (TNK2 (human)) was 78% and the kinase still bound, per cent of control (STK32A (human)) was 100%. The kinase still bound, per cent of control (PIK3C2G (human)) was 71%, the kinase still bound, per cent of control (PRKAA1 (human)) was 95% and the kinase still bound, per cent of control (PIP4K2B (human)) was 83%. For the same molecule, the residual activity (STK39 (human)) was 100%, the kinase still bound, per cent of control (INSR (human)) was 82% and the kinase still bound, per cent of control [3] was 100%. It also gave a kinase still bound, per cent of control (FRK (human)) of 63%, a kinase still bound, per cent of control (MAP2K4 (human)) of 78% and a kinase still bound, per cent of control (PAK7 (human)) of 62%. It also gave a kinase still bound, per cent of control (PDGFRB (human)) of 76%, a kinase still bound, per cent of control (PLK3 (human)) of 100% and a kinase still bound, per cent of control [4] of 100%. For the same molecule, the kinase still bound, per cent of control (CLK1 (human)) was 100%, the kinase still bound, per cent of control (MAP2K1 (human)) was 89% and the kinase still bound, per cent of control (PRKD3 (human)) was 98%. It also gave a kinase still bound, per cent of control (CSNK2A1 (human)) of 76%, a kinase still bound, per cent of control (MYLK3 (human)) of 100% and a kinase still bound, per cent of control [5] of 100%. The kinase still bound, per cent of control (MAPK1 (human)) was 100%, the kinase still bound, per cent of control (MAP3K1 (human)) was 65% and the kinase still bound, per cent of control (MAP3K9 (human)) was 100%. It also gave a kinase still bound, per cent of control (DDR2 (human)) of 100%, a kinase still bound, per cent of control (ULK3 (human)) of 83% and a kinase still bound, per cent of control (PRKCI (human)) of 100%.
